Test results published in patent publication US20030181727A1, “Cyanine dyes” (Kabushiki Kaisha Hayashibara Seibutsu Kagaku Kenky, priority 1999, published 2003).

Experiments:
[1] = Visible absorption spectra of monomethine cyanine dyes in methanol solution and as thin layer on glass substrates; format: physicochemical; conditions: for Wavelength of absorption maximum, Solution: dissolved in methanol; for Wavelength of absorption maximum, Thin layer: thin layer formed on glass substrate
Method: The monomethine cyanine dyes in Table 1 were measured for their visible absorption spectra when dissolved in methanol and formed on glass substrates, respectively. The results are tabulated in Table 1, and the visible absorption spectrum of the monomethine cyanine dye represented by Chemical Formula 17 when in a liquid form and in a thin-layer form are shown in FIG. 1.
As evident from the results in Table 1 and FIG. 1, the monomethine cyanine dyes tested had absorption maxima in relatively short wavelength visible regions, particularly, at wavelengths of 450 nm or less both in the forms of solution and thin layer. Most of these monomethine cyanine dyes had absorption maxima at wavelengths of 350-400 nm when in solution and thin layer forms, and the ends of their absorption maxima in their longer wavelength regions extended up to about 450 nm when in a thin layer form. The fact evidences that the light absorbents, comprising the monomethine cyanine dyes of the present invention, have sensitivity to a relatively short-wavelength visible light, and most of the light absorbents substantially absorb laser beams with wavelengths of 450 nm or less in their longer wavelength regions with their absorption maxima.

[2] = Light-resistance test: residual percentage of dye in thin layer on glass after 25 min exposure to 500 W xenon lamp; format: physicochemical; conditions: 7 cm, from transmittance at absorption maximum; for Residual percentage of monomethine cyanine dye, With no light-resistant improver: control thin layer without improver; for Residual percentage of monomethine cyanine dye, With light-resistant improver: thin layer with formazan nickel complex of Chemical Formula 49 (15 mg dye + 2 mg improver in 3 ml TFP)
Method: Fifteen milligrams of either of the monomethine cyanine dyes in Table 2 was added to three milliliters of TFP, and as a light-resistant improver two milligrams of the formazan nickel complex represented by Chemical Formula 49 disclosed in Japanese Patent Application No. 163,036/99, titled “Formazan metal complexes” applied for by the same applicant as the present invention, and the contents were dissolved in the solvent with a 5-minute ultrasonic energization at ambient temperature. Thereafter, in a usual manner, a prescribed volume of the resulting solution was dropped on either surface of a polished glass substrate, 5 cm×5 cm, while the glass substrate was rotated at a rotation rate of 1,000 rpm for one minute to uniformly coat the solution thereupon, and sequentially blown with hot air and cold air to dry the coated solution. [drawing 10]
The resulting glass substrates coated with the monomethine cyanine dyes were measured for transmittance (T0) at the wavelengths of their absorption maxima, and then fixed to a position 7 cm apart from a 500 W xenon lamp and exposed with the light for 25 min while cold air was blowing to the substrates. Immediately after that, the resulting substrates were remeasured for transmittance (T) at the wavelengths of the absorption maxima of the monomethine cyanine dyes, and the transmittances of T and T0 for each monomethine cyanine dye were substituted for the Equation 1 to calculate the residual percentage (%) of each monomethine cyanine dye. In parallel, control systems with no light-resistant improver for each monomethine cyanine dye were provided and treated similarly as above. [formula]
As shown in the results in Table 2, in the systems with no light-resistant improver, up to 74% of the monomethine cyanine dye had changed with only a 25-min exposure of light to become incapable of exerting its inherent optical properties. However, in the systems with the formazan metal complex represented by Chemical Formula 49, all of the monomethine cyanine dyes still remained intact up to a level of over 93% without changing even after the exposure of light.

| SMILES | Wavelength of absorption maximum, Solution [1] | Wavelength of absorption maximum, Thin layer [1] | Residual percentage of monomethine cyanine dye, With no light-resistant improver [2] | Residual percentage of monomethine cyanine dye, With light-resistant improver [2] |
| --- | --- | --- | --- | --- |
| CC[n+]1c(C=C2Oc3ccc(-c4ccccc4)cc3N2C)oc2ccccc21.[I-] [Chemical Formula 6] | 380 nm | 371 nm | 98.7% | 100.0% |
| CC[n+]1c(C)csc1C=C1OC=C(C)N1C.[I-] [Chemical Formula 17] | 379 nm | 375 nm | 80.6% | 100.0% |
| CN1C(=CC2=[N+](C)c3ccccc3C2(C)C)Oc2ccccc21.[I-] [Chemical Formula 36] | 396 nm | 440 nm | 26.0% | 93.2% |
